Data taken from ChEMBL document CHEMBL1146252, “Discovery and SAR study of novel dihydroquinoline-containing glucocorticoid receptor agonists” (Bioorg Med Chem Lett, 2007).
Calls of active or inactive are those of the source. The calls are words filed in the database; no cut-off is given here.

How the values were obtained:
Progesterone receptor = target: T1, Progesterone receptor (Homo sapiens, UniProt P06401); assay: Displacement of RU486 from human progesterone receptor by fluorescence polarization assay
T1 sequence (P06401 whole entry): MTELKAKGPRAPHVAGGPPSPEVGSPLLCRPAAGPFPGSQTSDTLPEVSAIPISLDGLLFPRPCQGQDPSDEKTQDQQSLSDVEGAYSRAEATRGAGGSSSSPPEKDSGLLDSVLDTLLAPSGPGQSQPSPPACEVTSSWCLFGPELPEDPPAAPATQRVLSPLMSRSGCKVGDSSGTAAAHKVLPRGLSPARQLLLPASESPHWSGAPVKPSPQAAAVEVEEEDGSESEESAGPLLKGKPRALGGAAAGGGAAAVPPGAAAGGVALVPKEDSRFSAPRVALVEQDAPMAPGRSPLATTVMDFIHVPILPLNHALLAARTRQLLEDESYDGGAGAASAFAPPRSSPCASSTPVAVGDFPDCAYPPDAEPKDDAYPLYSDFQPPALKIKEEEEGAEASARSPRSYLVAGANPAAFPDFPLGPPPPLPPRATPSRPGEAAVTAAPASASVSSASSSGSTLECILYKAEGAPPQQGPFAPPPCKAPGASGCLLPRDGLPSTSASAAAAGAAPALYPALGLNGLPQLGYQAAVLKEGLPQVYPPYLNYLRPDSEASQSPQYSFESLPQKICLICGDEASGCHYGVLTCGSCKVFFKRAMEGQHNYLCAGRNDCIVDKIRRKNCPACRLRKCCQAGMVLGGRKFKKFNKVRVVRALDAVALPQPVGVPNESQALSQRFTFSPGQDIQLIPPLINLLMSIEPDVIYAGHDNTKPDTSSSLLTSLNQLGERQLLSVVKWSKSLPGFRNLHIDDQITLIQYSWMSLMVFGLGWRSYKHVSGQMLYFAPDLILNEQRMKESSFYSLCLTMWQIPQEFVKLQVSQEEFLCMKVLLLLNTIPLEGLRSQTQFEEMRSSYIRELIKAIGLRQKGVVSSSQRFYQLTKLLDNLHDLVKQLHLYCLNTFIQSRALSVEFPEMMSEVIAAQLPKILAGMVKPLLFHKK

Glucocorticoid receptor = target: T2, Glucocorticoid receptor (Homo sapiens, UniProt P04150); assay: Displacement of Dexamethasone from human glucocorticoid receptor by fluorescence polarization assay
T2 sequence (P04150 whole entry): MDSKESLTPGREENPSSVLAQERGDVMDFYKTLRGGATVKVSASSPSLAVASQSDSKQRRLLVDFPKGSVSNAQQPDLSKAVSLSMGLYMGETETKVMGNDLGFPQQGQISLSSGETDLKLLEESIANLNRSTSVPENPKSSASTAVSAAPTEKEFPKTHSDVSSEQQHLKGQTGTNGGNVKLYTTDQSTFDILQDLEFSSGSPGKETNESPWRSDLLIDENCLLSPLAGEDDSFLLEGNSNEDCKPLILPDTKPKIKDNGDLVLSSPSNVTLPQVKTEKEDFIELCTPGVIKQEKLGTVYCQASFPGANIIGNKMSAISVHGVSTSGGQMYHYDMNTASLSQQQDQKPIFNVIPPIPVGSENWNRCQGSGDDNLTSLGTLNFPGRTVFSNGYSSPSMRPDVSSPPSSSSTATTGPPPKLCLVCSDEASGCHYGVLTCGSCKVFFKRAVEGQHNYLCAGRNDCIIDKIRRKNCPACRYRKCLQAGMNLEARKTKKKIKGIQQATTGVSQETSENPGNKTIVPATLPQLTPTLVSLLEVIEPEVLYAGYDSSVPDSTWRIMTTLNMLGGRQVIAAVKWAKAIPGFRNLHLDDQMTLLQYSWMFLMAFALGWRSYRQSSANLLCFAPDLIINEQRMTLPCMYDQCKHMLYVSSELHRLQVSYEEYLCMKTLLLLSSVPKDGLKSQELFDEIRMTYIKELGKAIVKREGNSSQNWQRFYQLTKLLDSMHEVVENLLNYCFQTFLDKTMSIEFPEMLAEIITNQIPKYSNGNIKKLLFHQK

[1] = target: T3, Mineralocorticoid receptor (Homo sapiens, UniProt P08235); assay: Displacement of Dexamethasone from human mineralocorticoid receptor by fluorescence polarization assay
T3 sequence (P08235 whole entry): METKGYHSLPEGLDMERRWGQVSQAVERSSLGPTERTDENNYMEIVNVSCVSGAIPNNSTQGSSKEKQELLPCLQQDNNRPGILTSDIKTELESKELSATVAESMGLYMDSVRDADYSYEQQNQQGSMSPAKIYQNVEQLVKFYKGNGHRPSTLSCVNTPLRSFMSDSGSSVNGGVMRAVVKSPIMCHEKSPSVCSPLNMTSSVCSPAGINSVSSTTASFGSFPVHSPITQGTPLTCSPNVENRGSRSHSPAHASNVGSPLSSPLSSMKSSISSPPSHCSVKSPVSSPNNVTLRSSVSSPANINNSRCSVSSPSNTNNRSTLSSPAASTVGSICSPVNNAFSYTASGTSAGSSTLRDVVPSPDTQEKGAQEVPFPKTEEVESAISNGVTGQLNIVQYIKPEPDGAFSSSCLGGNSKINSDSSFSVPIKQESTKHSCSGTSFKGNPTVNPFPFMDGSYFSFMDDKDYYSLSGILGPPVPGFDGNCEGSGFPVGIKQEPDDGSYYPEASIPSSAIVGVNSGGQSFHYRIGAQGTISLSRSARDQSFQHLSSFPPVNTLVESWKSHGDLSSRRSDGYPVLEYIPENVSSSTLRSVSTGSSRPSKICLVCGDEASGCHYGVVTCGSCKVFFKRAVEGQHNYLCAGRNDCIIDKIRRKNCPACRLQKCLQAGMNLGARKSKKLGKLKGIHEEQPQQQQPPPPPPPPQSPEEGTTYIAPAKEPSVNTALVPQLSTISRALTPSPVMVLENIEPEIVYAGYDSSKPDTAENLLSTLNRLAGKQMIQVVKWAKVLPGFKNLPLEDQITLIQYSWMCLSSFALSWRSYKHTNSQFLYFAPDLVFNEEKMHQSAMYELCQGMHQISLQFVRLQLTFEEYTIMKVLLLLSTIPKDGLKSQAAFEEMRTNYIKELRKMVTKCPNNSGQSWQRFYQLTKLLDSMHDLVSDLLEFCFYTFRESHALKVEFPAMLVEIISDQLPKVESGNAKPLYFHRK

[2] = Metabolic stability in human liver microsomes; type: ADME, Microsome
Estrogen receptor = target: T4, Estrogen receptor (Homo sapiens, UniProt P03372); assay: Displacement of fluormone from human estrogen receptor by fluorescence binding assay
T4 sequence (P03372 whole entry): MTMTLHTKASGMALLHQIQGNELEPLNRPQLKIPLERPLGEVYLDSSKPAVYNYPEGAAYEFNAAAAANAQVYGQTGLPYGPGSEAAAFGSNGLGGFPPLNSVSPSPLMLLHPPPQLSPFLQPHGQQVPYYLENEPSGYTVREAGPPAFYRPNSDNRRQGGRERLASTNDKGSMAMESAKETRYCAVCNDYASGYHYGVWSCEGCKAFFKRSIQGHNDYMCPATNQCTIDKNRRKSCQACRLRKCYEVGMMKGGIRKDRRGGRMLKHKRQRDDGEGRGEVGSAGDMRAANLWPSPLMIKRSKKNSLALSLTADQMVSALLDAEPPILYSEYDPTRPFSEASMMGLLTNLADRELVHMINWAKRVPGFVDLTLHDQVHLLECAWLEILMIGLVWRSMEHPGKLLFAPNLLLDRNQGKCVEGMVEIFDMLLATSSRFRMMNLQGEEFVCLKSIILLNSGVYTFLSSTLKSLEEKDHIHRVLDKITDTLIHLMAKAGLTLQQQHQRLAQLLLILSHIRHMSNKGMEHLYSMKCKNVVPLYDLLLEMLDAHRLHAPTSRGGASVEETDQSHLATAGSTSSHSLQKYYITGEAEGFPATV

Fibroblast [3] = assay: Inhibition of IL1-induced IL6 production in foreskin fibroblasts after 24 hrs; type: functional, cell-based
Fibroblast [4] = assay: Inhibition of IL1-induced IL6 production in foreskin fibroblasts at 2000 nM after 24 hrs relative to Dexamethasone; type: functional, Homo sapiens

`C=CCOC(CC)C1=CC(C)(C)Nc2ccc(-c3ccccc3OC)cc21` (stereo not drawn) showed an IC50 (Progesterone receptor) of 330 nM and an IC50 (Glucocorticoid receptor) of 355 nM.

Work on `C=CCOC(Cc1ccccc1)C1=CC(C)(C)Nc2ccc(-c3ccccc3OC)cc21` (stereo not drawn) yielded an IC50 (Progesterone receptor) of 1200 nM and an IC50 (Glucocorticoid receptor) greater than 2000 nM.

Work on `COc1ccccc1-c1ccc2c(c1)C(C(C)OCCc1cccc(Cl)c1)=CC(C)(C)N2` (stereo not drawn) yielded an IC50 (Progesterone receptor) of 1900 nM and an IC50 (Glucocorticoid receptor) of 275 nM.

Compound `C=CCOC(C)C1=CC(C)(C)Nc2ccc(-c3cc(F)ccc3OC)cc21` (racemic) has an IC50 (Progesterone receptor) of 451 nM, an IC50 (Glucocorticoid receptor) of 34 nM and an IC50 [1] of 970 nM. The half-life [2] was 6 min.

`CC/C=C/COC(C)C1=CC(C)(C)Nc2ccc(-c3ccccc3OC)cc21` (stereo not drawn) gave an IC50 (Progesterone receptor) of 1600 nM and an IC50 (Glucocorticoid receptor) of 565 nM.

`C/C=C/COC(C)C1=CC(C)(C)Nc2ccc(-c3ccccc3OC)cc21` (stereo not drawn) showed an IC50 (Progesterone receptor) of 1300 nM and an IC50 (Glucocorticoid receptor) of 210 nM.

With `C=CCOC(C)C1=CC(C)(C)Nc2ccc(-c3ccccc3OC)cc21` (stereo not drawn) the IC50 (Progesterone receptor) was 480 nM and the IC50 (Glucocorticoid receptor) was 116 nM.

In the case of `C=CC[S+]([O-])CC1=CC(C)(C)Nc2ccc(-c3ccccc3OC)cc21` (stereo not drawn), the IC50 (Progesterone receptor) is reported as greater than 2000 nM and the IC50 (Glucocorticoid receptor) is reported as greater than 2000 nM.

Work on `COc1ccc(F)cc1-c1ccc2c(c1)C(C(C)OCCc1ccccc1)=CC(C)(C)N2` (stereo not drawn) yielded an IC50 (Progesterone receptor) of 1300 nM and an IC50 (Glucocorticoid receptor) of 195 nM.

`COc1ccccc1-c1ccc2c(c1)C(C(C)OCCCc1ccccc1)=CC(C)(C)N2` (stereo not drawn) showed an IC50 (Progesterone receptor) greater than 2000 nM and an IC50 (Glucocorticoid receptor) of 260 nM.

Work on `C=CCOC(CCc1ccccc1)C1=CC(C)(C)Nc2ccc(-c3ccccc3OC)cc21` (stereo not drawn) yielded an IC50 (Progesterone receptor) of 1000 nM and an IC50 (Glucocorticoid receptor) greater than 2000 nM.

With `COc1ccc(F)cc1-c1ccc2c(c1)C(CSCCc1ccccc1)=CC(C)(C)N2` the IC50 (Estrogen receptor) was greater than 2000 nM, the half-life [2] was 17 min and the Activity (Fibroblast [3]; Homo sapiens) was “inactive”.

For `C=CCSC(C)C1=CC(C)(C)Nc2ccc(-c3ccccc3OC)cc21` (stereo not drawn), the IC50 (Progesterone receptor) was 600 nM and the IC50 (Glucocorticoid receptor) was 116 nM.

`C=CCOC(CC=C)C1=CC(C)(C)Nc2ccc(-c3ccccc3OC)cc21` (stereo not drawn) gave an IC50 (Progesterone receptor) of 440 nM and an IC50 (Glucocorticoid receptor) greater than 2000 nM.

In the case of `C=CCSCC1=CC(C)(C)Nc2ccc(-c3cc(F)ccc3OC)cc21`, the IC50 (Estrogen receptor) is reported as greater than 2000 nM, the IC50 [1] is reported as greater than 2000 nM and the half-life [2] is reported as 12 min. The Activity (Fibroblast [3]; Homo sapiens) was “inactive”.

In the case of `C=CCOC(C)C1=CC(C)(C)Nc2ccc(-c3cc(F)ccc3OC)cc21.Cl` (single isomer, unassigned; (-)), the IC50 (Progesterone receptor) is reported as 620 nM, the IC50 (Glucocorticoid receptor) is reported as 110 nM and the IC50 [1] is reported as greater than 2000 nM. It also gave a half-life [2] of 5 min, an IC50 (Fibroblast [3]; Homo sapiens, Fibroblast, 24 h) of 260 nM and an Inhibition (Fibroblast [4]) of 46%.

`COc1ccccc1-c1ccc2c(c1)C(C(C)OCCc1ccccc1)=CC(C)(C)N2` (stereo not drawn) showed an IC50 (Progesterone receptor) greater than 2000 nM and an IC50 (Glucocorticoid receptor) of 404 nM.

Compound `COc1ccccc1-c1ccc2c(c1)C(C(C)OCCC1CCCCC1)=CC(C)(C)N2` (stereo not drawn) has an IC50 (Progesterone receptor) greater than 2000 nM and an IC50 (Glucocorticoid receptor) of 400 nM.

`C=CCOC(CCC)C1=CC(C)(C)Nc2ccc(-c3ccccc3OC)cc21` (stereo not drawn) gave an IC50 (Progesterone receptor) greater than 2000 nM and an IC50 (Glucocorticoid receptor) greater than 2000 nM.

Work on `COc1ccccc1-c1ccc2c(c1)C(C(C)OC/C=C/c1ccccc1)=CC(C)(C)N2` (stereo not drawn) yielded an IC50 (Progesterone receptor) greater than 2000 nM and an IC50 (Glucocorticoid receptor) of 980 nM.

Compound `COc1ccccc1-c1ccc2c(c1)C(C(C)OC)=CC(C)(C)N2` (stereo not drawn) has an IC50 (Progesterone receptor) of 540 nM and an IC50 (Glucocorticoid receptor) of 1060 nM.

Compound `COc1ccccc1-c1ccc2c(c1)C(C(C)OCCc1ccccc1Cl)=CC(C)(C)N2` (stereo not drawn) has an IC50 (Progesterone receptor) greater than 2000 nM and an IC50 (Glucocorticoid receptor) of 290 nM.

`COc1ccccc1-c1ccc2c(c1)C(C(C)OCC=C(C)C)=CC(C)(C)N2` (stereo not drawn) showed an IC50 (Progesterone receptor) of 980 nM and an IC50 (Glucocorticoid receptor) of 395 nM.

In the case of `COc1ccccc1-c1ccc2c(c1)C(C(C)OCCc1ccc(Cl)cc1)=CC(C)(C)N2` (stereo not drawn), the IC50 (Progesterone receptor) is reported as 930 nM and the IC50 (Glucocorticoid receptor) is reported as 185 nM.

Work on `C=CCOC(C1=CC(C)(C)Nc2ccc(-c3ccccc3OC)cc21)C(C)C` (stereo not drawn) yielded an IC50 (Progesterone receptor) of 950 nM and an IC50 (Glucocorticoid receptor) of 710 nM.

`C=CCOC(C1=CC(C)(C)Nc2ccc(-c3ccccc3OC)cc21)c1ccccc1` (stereo not drawn) gave an IC50 (Progesterone receptor) greater than 2000 nM and an IC50 (Glucocorticoid receptor) greater than 2000 nM.

Work on `Br.C=CCOC(C)C1=CC(C)(C)Nc2ccc(-c3cc(F)ccc3OC)cc21` (single isomer, unassigned; (+)) yielded an IC50 (Progesterone receptor) of 170 nM, an IC50 (Glucocorticoid receptor) of 40 nM and an IC50 (Estrogen receptor) greater than 2000 nM. The IC50 [1] was 1100 nM, the half-life [2] was 6 min and the IC50 (Fibroblast [3]; fibroblast) was 170 nM. For the same compound, the inhibition at 2 µM (Fibroblast [4]; Homo sapiens, Fibroblast, 24 h) was 28%.
